What was measured:
[1] = Cell cycle arrest in human KB cells assessed as accumulation at G2/M-phase at 0.05 uM measured after 24 hrs by propidium iodide staining-based flow cytometry (reference value: 28.84%); format: functional
[2] = Cell cycle arrest in human KB cells assessed as accumulation at S-phase at 0.2 uM measured after 36 hrs by propidium iodide staining-based flow cytometry (reference value: 16.51%); format: functional
[3] = Cell cycle arrest in human KB cells assessed as accumulation at S-phase at 0.2 uM measured after 12 hrs by propidium iodide staining-based flow cytometry (reference value: 15.5%); format: functional
[4] = Cell cycle arrest in human KB cells assessed as accumulation at S-phase at 0.2 uM measured after 24 hrs by propidium iodide staining-based flow cytometry (reference value: 16.96%); format: functional
[5] = Antiproliferative activity against human SGC7901 cells measured after 72 hrs by MTT assay; format: functional, cell-based; details: SGC-7901, 72 h
[6] = Cell cycle arrest in human KB cells assessed as accumulation at G0/G1-phase at 0.2 uM measured after 48 hrs by propidium iodide staining-based flow cytometry (reference value: 58.26%); format: functional
[7] = Cell cycle arrest in human KB cells assessed as accumulation at G2/M-phase measured after 24 hrs by propidium iodide staining-based flow cytometry (reference value: 28.84%); format: functional
[8] = Cell cycle arrest in human KB cells assessed as accumulation at G0/G1-phase measured after 24 hrs by propidium iodide staining-based flow cytometry (reference value: 48.52%); format: functional
[9] = Inhibition of porcine brain tubulin polymerization measured after 60 mins by fluorescence analysis; set-up: species or system Sus scrofa
[10] = Cell cycle arrest in human KB cells assessed as accumulation at G2/M-phase measured after 48 hrs by propidium iodide staining-based flow cytometry (reference value: 23.36%); format: functional
[11] = Cell cycle arrest in human KB cells assessed as accumulation at G2/M-phase at 0.1 uM measured after 12 hrs by propidium iodide staining-based flow cytometry (reference value: 30.19%); format: functional
[12] = Cell cycle arrest in human KB cells assessed as accumulation at G2/M-phase at 0.2 uM measured after 12 hrs by propidium iodide staining-based flow cytometry (reference value: 30.19%); format: functional
[13] = Cell cycle arrest in human KB cells assessed as accumulation at G2/M-phase at 0.1 uM measured after 36 hrs by propidium iodide staining-based flow cytometry (reference value: 27.34%); format: functional
[14] = Cell cycle arrest in human KB cells assessed as accumulation at SubG1-phase at 0.2 uM measured after 12 hrs by propidium iodide staining-based flow cytometry (reference value: 1.23%); format: functional
[15] = Cell cycle arrest in human KB cells assessed as accumulation at S-phase at 0.2 uM measured after 60 hrs by propidium iodide staining-based flow cytometry (reference value: 12.66%); format: functional
[16] = Cell cycle arrest in human KB cells assessed as accumulation at S-phase measured after 24 hrs by propidium iodide staining-based flow cytometry (reference value: 16.96%); format: functional
[17] = Cell cycle arrest in human KB cells assessed as accumulation at G0/G1-phase at 0.2 uM measured after 24 hrs by propidium iodide staining-based flow cytometry (reference value: 48.52%); format: functional
[18] = Cell cycle arrest in human KB cells assessed as accumulation at G2/M-phase at 0.05 uM measured after 48 hrs by propidium iodide staining-based flow cytometry (reference value: 23.36%); format: functional
[19] = Cell cycle arrest in human KB cells assessed as accumulation at S-phase at 0.05 uM measured after 12 hrs by propidium iodide staining-based flow cytometry (reference value: 15.5%); format: functional
[20] = Cell cycle arrest in human KB cells assessed as accumulation at SubG1-phase at 0.05 uM measured after 60 hrs by propidium iodide staining-based flow cytometry (reference value: 1.24%); format: functional
[21] = Cell cycle arrest in human KB cells assessed as accumulation at SubG1-phase measured after 36 hrs by propidium iodide staining-based flow cytometry (reference value: 0.63%); format: functional
[22] = Cell cycle arrest in human KB cells assessed as accumulation at SubG1-phase measured after 12 hrs by propidium iodide staining-based flow cytometry (reference value: 1.23%); format: functional
[23] = Cell cycle arrest in human KB cells assessed as accumulation at SubG1-phase at 0.1 uM measured after 48 hrs by propidium iodide staining-based flow cytometry (reference value: 0.61%); format: functional
[24] = Cell cycle arrest in human KB cells assessed as accumulation at G2/M-phase at 0.2 uM measured after 60 hrs by propidium iodide staining-based flow cytometry (reference value: 18.9%); format: functional
[25] = Antiproliferative activity against human HT1080 cells measured after 72 hrs by MTT assay; format: functional, cell-based; details: HT-1080, 72 h
[26] = Cell cycle arrest in human KB cells assessed as accumulation at G0/G1-phase at 0.05 uM measured after 12 hrs by propidium iodide staining-based flow cytometry (reference value: 48.26%); format: functional
[27] = Cell cycle arrest in human KB cells assessed as accumulation at G0/G1-phase at 0.1 uM measured after 36 hrs by propidium iodide staining-based flow cytometry (reference value: 51.51%); format: functional
[28] = Cell cycle arrest in human KB cells assessed as accumulation at SubG1-phase at 0.05 uM measured after 36 hrs by propidium iodide staining-based flow cytometry (reference value: 0.63%); format: functional
[29] = Cell cycle arrest in human KB cells assessed as accumulation at G0/G1-phase at 0.2 uM measured after 60 hrs by propidium iodide staining-based flow cytometry (reference value: 63.85%); format: functional
[30] = Cell cycle arrest in human KB cells assessed as accumulation at G2/M-phase measured after 36 hrs by propidium iodide staining-based flow cytometry (reference value: 27.34%); format: functional
[31] = Antiproliferative activity against human KB cells measured after 72 hrs by MTT assay; format: functional, cell-based
[32] = Cell cycle arrest in human KB cells assessed as accumulation at S-phase at 0.05 uM measured after 60 hrs by propidium iodide staining-based flow cytometry (reference value: 12.66%); format: functional
[33] = Cell cycle arrest in human KB cells assessed as accumulation at SubG1-phase at 0.1 uM measured after 24 hrs by propidium iodide staining-based flow cytometry (reference value: 0.76%); format: functional
[34] = Cell cycle arrest in human KB cells assessed as accumulation at G2/M-phase at 0.05 uM measured after 60 hrs by propidium iodide staining-based flow cytometry (reference value: 18.9%); format: functional
[35] = Cell cycle arrest in human KB cells assessed as accumulation at G0/G1-phase at 0.05 uM measured after 24 hrs by propidium iodide staining-based flow cytometry (reference value: 48.52%); format: functional
[36] = Cell cycle arrest in human KB cells assessed as accumulation at SubG1-phase measured after 24 hrs by propidium iodide staining-based flow cytometry (reference value: 0.76%); format: functional
[37] = Cell cycle arrest in human KB cells assessed as accumulation at G2/M-phase at 0.2 uM measured after 24 hrs by propidium iodide staining-based flow cytometry (reference value: 28.84%); format: functional
[38] = Cell cycle arrest in human KB cells assessed as accumulation at S-phase at 0.1 uM measured after 48 hrs by propidium iodide staining-based flow cytometry (reference value: 13.32%); format: functional

- IC50 [9]: 4440 nM
Compound: COc1ccc(-c2ssc(=O)c2-c2cc(OC)c(OC)c(OC)c2)cc1N
- Activity [1]: 36.6%
- Activity [2]: 15.9%
- Activity [3]: 22.8%
- Activity [4]: 22.2%
- IC50 [5]: 172 nM
- Activity [6]: 11.7%
- Activity [7]: 52.1%
- Activity [8]: 6.89%
- Activity [10]: 15.5%
- Activity [11]: 62.8%
- Activity [12]: 70.2%
- Activity [13]: 23.7%
- Activity [14]: 2.22%
- Activity [15]: 6.33%
- Activity [16]: 26.9%
- Activity [17]: 6.24%
- Activity [18]: 18.5%
- Activity [19]: 16.4%
- Activity [20]: 34.4%
- Activity [21]: 25.8%
- Activity [22]: 1.85%
- Activity [23]: 33.6%
- Activity [24]: 19.9%
- IC50 [25]: 147 nM
- Activity [26]: 43%
- Activity [27]: 25.5%
- Activity [28]: 10.1%
- Activity [29]: 10.4%
- Activity [30]: 27.9%
- IC50 [31]: 60 nM
- Activity [32]: 8.75%
- Activity [33]: 16%
- Activity [34]: 14%
- Activity [35]: 36.7%
- Activity [36]: 12.3%
- Activity [37]: 55.8%
- Activity [38]: 15.3%

Source: ChEMBL document CHEMBL3865818, “4,5-Diaryl-3H-1,2-dithiole-3-thiones and related compounds as combretastatin A-4/oltipraz hybrids: Synthesis, molecular modelling and evaluation as antiproliferative agents and inhibitors of tubulin” (Eur J Med Chem, 2016)
